Tests used:
Assay in all cases: Esterase Activity Assay
Settings in all cases: pH 7.4
Carbonic anhydrase 4 = Carbonic anhydrase 4 (Homo sapiens, UniProt P22748)
Carbonic anhydrase 3 = target: T1, Carbonic anhydrase 3 (Bos taurus, UniProt Q3SZX4)
T1 sequence (Q3SZX4 whole entry): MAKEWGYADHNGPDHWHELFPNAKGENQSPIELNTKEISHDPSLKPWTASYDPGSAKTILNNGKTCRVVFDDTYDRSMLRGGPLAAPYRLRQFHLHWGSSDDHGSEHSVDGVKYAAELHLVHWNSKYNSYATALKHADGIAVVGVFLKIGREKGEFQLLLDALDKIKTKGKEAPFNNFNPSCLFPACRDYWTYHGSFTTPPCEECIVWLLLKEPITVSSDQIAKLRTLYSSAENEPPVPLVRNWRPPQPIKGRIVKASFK

Carbonic anhydrase 2 = Carbonic anhydrase 2 (Homo sapiens, UniProt P00918)
Carbonic anhydrase 1 = Carbonic anhydrase 1 (Homo sapiens, UniProt P00915)
Sequence of Carbonic anhydrase 1 (P00915 whole entry): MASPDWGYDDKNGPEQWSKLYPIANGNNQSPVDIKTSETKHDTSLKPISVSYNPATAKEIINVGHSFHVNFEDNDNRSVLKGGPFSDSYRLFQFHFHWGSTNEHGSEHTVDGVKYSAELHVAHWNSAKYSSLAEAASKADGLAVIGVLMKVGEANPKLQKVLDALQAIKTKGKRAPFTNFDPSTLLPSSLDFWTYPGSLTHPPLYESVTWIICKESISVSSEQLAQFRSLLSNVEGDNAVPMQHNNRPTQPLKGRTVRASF

Sequence of Carbonic anhydrase 4 (P22748 whole entry): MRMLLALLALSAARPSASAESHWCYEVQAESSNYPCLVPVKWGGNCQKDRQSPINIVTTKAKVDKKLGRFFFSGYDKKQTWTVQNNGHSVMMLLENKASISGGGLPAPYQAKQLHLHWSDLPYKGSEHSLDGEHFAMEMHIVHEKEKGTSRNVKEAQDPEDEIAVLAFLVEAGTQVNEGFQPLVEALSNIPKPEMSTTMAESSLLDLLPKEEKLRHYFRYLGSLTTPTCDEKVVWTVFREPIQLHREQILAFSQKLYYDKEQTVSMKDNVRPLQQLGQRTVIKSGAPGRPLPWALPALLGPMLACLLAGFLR

Structure (SMILES)	Ki (Carbonic anhydrase 4) [µM]	Ki (Carbonic anhydrase 3) [µM]	Ki (Carbonic anhydrase 2) [µM]	Ki (Carbonic anhydrase 1) [µM]
Oc1cccc(O)c1	634	219	9.4	828
O=c1c(O)c(-c2ccc(O)cc2O)oc2cc(O)cc(O)c12 [2-(2,4-dihydroxyphenyl)-3,5,7-trihydroxychromen-4-one]	15.7	21.3	4.4	12.8
O=c1cc(-c2ccc(O)cc2)oc2cc(O)cc(O)c12 [Naringenin, 18]	9.1	11.6	2.7	4.1
O=c1cc(-c2ccc(O)c(O)c2)oc2cc(O)cc(O)c12 [2-(3,4-dihydroxyphenyl)-5,7-dihydroxy-4H-chromen-4-one]	4.4	5.4	0.74	2.2
O=c1c(O)c(-c2ccc(O)c(O)c2)oc2cc(O)cc(O)c12 [2-(3,4-dihydroxyphenyl)-3,5,7-trihydroxy-chromone;hydrate]	13.8	9.1	2.4	3.6
Oc1ccccc1O [1,2-Dihydroxybenzene, XI]		6.5	11.4	
Oc1ccccc1	14.3	4.6	7.4	17.3
Oc1cc(O)c2c(c1)O[C@H](c1ccc(O)c(O)c1)[C@@H](O)C2 [(+)-Catechin]	5.6	2.2		6.8
